Data from ChEMBL document CHEMBL1155271, “Synthesis, crystal structures and antibacterial activity studies of aza-derivatives of phytoalexin from cotton plant--gossypol” (2009).
≈ marks a conversion by molar mass, not a printed value. Calls of active or inactive are those of the source. The rule behind the calls is not given here.

Experiments:
Type in all cases: functional
Staphylococcus aureus [1] = assay: Antimicrobial activity against Methicillin susceptible Staphylococcus aureus 213/7 by twofold dilution technique
Staphylococcus aureus [2] = assay: Antimicrobial activity against Methicillin susceptible Staphylococcus aureus 237/7 by twofold dilution technique
Staphylococcus aureus [3] = assay: Antimicrobial activity against Methicillin susceptible Staphylococcus aureus 238/7 by twofold dilution technique
Staphylococcus aureus [4] = assay: Antimicrobial activity against Methicillin susceptible Staphylococcus aureus 239/7 by twofold dilution technique
Staphylococcus aureus [5] = assay: Antimicrobial activity against Methicillin susceptible Staphylococcus aureus 242/7 by twofold dilution technique
Staphylococcus aureus [6] = assay: Antimicrobial activity against Methicillin susceptible Staphylococcus aureus 243/7 by twofold dilution technique
Staphylococcus aureus [7] = assay: Antimicrobial activity against methicillin-resistant Staphylococcus aureus 140/6 by twofold dilution technique
Staphylococcus aureus [8] = assay: Antimicrobial activity against methicillin-resistant Staphylococcus aureus 141/6 by twofold dilution technique
Staphylococcus aureus [9] = assay: Antimicrobial activity against methicillin-resistant Staphylococcus aureus 143/6 by twofold dilution technique
Staphylococcus aureus [10] = assay: Antimicrobial activity against methicillin-resistant Staphylococcus aureus 144/6 by twofold dilution technique
Staphylococcus aureus [11] = assay: Antimicrobial activity against methicillin-resistant Staphylococcus aureus 146/6 by twofold dilution technique
Staphylococcus aureus [12] = assay: Antimicrobial activity against methicillin-resistant Staphylococcus aureus 200/7 by twofold dilution technique
Staphylococcus aureus [13] = assay: Antimicrobial activity against methicillin-resistant Staphylococcus aureus 217/7 by twofold dilution technique
Staphylococcus aureus [14] = assay: Antimicrobial activity against methicillin-resistant Staphylococcus aureus 218/7 by twofold dilution technique
Staphylococcus aureus [15] = assay: Antimicrobial activity against methicillin-resistant Staphylococcus aureus 236/7 by twofold dilution technique
Staphylococcus aureus [16] = assay: Antimicrobial activity against Staphylococcus aureus NCTC 4163 at 400 ug after 18 hrs by disk diffusion method; conditions: NCTC 4163, 18 h, read-out: DIZ
[17] = test system: Staphylococcus epidermidis; assay: Antimicrobial activity against Staphylococcus epidermidis ATCC 12228 at 400 ug after 18 hrs by disk diffusion method; conditions: ATCC 12228, 18 h, read-out: DIZ
Bacillus subtilis [18] = assay: Antimicrobial activity against Bacillus subtilis ATCC 6633 at 400 ug after 18 hrs by disk diffusion method; conditions: ATCC 6633, 18 h, read-out: DIZ
Bacillus cereus [19] = assay: Antimicrobial activity against Bacillus cereus ATCC 11778 at 400 ug after 18 hrs by disk diffusion method; conditions: ATCC 11778, 18 h, read-out: DIZ
Enterococcus hirae [20] = assay: Antimicrobial activity against Enterococcus hirae ATCC 10541 at 400 ug after 18 hrs by disk diffusion method
Micrococcus luteus [21] = assay: Antimicrobial activity against Micrococcus luteus ATCC 9341 at 400 ug after 18 hrs by disk diffusion method
Micrococcus luteus [22] = assay: Antimicrobial activity against Micrococcus luteus ATCC 10240 at 400 ug after 18 hrs by disk diffusion method; conditions: ATCC 10240, 18 h, read-out: DIZ
Staphylococcus aureus [23] = assay: Antimicrobial activity against Staphylococcus aureus ATCC 25923 at 400 ug after 18 hrs by disk diffusion method; conditions: ATCC 25923, 18 h, read-out: DIZ
Staphylococcus aureus [24] = assay: Antimicrobial activity against Staphylococcus aureus ATCC 6538 at 400 ug after 18 hrs by disk diffusion method; conditions: ATCC 6538, 18 h, read-out: DIZ
Staphylococcus aureus [25] = assay: Antimicrobial activity against Staphylococcus aureus ATCC 29213 at 400 ug after 18 hrs by disk diffusion method; conditions: ATCC 29213, 18 h, read-out: DIZ
Staphylococcus aureus [26] = assay: Antimicrobial activity against Staphylococcus aureus NCTC 4163 after 18 hrs by twofold dilution technique; conditions: NCTC 4163, 18 h
Staphylococcus aureus [27] = assay: Antimicrobial activity against Staphylococcus aureus ATCC 25923 after 18 hrs by twofold dilution technique; conditions: ATCC 25923, 18 h
Staphylococcus aureus [28] = assay: Antimicrobial activity against Staphylococcus aureus ATCC 6538 after 18 hrs by twofold dilution technique; conditions: ATCC 6538, 18 h
Staphylococcus aureus [29] = assay: Antimicrobial activity against Staphylococcus aureus ATCC 29213 after 18 hrs by twofold dilution technique; conditions: ATCC 29213, 18 h
[30] = test system: Staphylococcus epidermidis; assay: Antimicrobial activity against Staphylococcus epidermidis ATCC 12228 by twofold dilution technique
Bacillus subtilis [31] = assay: Antimicrobial activity against Bacillus subtilis ATCC 6633 after 18 hrs by twofold dilution technique; conditions: ATCC 6633, 18 h
Bacillus cereus [32] = assay: Antimicrobial activity against Bacillus cereus ATCC 11778 after 18 hrs by twofold dilution technique; conditions: ATCC 11778, 18 h
Enterococcus hirae [33] = assay: Antimicrobial activity against Enterococcus hirae ATCC 10541 after 18 hrs by twofold dilution technique; conditions: ATCC 10541, 18 h
Micrococcus luteus [34] = assay: Antimicrobial activity against Micrococcus luteus ATCC 9341 after 18 hrs by twofold dilution technique; conditions: ATCC 9341, 18 h
Micrococcus luteus [35] = assay: Antimicrobial activity against Micrococcus luteus ATCC 10240 by twofold dilution technique
Staphylococcus aureus [36] = assay: Antimicrobial activity against methicillin-resistant Staphylococcus aureus 136/6 by twofold dilution technique
Staphylococcus aureus [37] = assay: Antimicrobial activity against Methicillin susceptible Staphylococcus aureus 206/7 by twofold dilution technique
Staphylococcus aureus [38] = assay: Antimicrobial activity against Methicillin susceptible Staphylococcus aureus 207/7 by twofold dilution technique
Staphylococcus aureus [39] = assay: Antimicrobial activity against Methicillin susceptible Staphylococcus aureus 208/7 by twofold dilution technique
Staphylococcus aureus [40] = assay: Antimicrobial activity against Methicillin susceptible Staphylococcus aureus 212/7 by twofold dilution technique

COCCOC(CN/N=C/c1c(O)c(O)c(C(C)C)c2cc(C)c(-c3c(C)cc4c(C(C)C)c(O)c(O)c(/C=N/NCC(OCCOC)OCCOC)c4c3O)c(O)c12)OCCOC gave an MIC (Staphylococcus aureus [1]) of 400 µg/mL (≈ 445 µM), an MIC (Staphylococcus aureus [2]) of 400 µg/mL (≈ 445 µM) and an MIC (Staphylococcus aureus [3]) of 400 µg/mL (≈ 445 µM). It also gave an MIC (Staphylococcus aureus [4]) of 400 µg/mL (≈ 445 µM), an MIC (Staphylococcus aureus [5]) of 200 µg/mL (≈ 222 µM) and an MIC (Staphylococcus aureus [6]) greater than 400 µg/mL. For the same compound, the MIC (Staphylococcus aureus [7]) was 400 µg/mL (≈ 445 µM), the MIC (Staphylococcus aureus [8]) was 400 µg/mL (≈ 445 µM) and the MIC (Staphylococcus aureus [9]) was greater than 400 µg/mL. It also gave an MIC (Staphylococcus aureus [10]) of 400 µg/mL (≈ 445 µM), an MIC (Staphylococcus aureus [11]) of 400 µg/mL (≈ 445 µM) and an MIC (Staphylococcus aureus [12]) greater than 400 µg/mL. For the same compound, the MIC (Staphylococcus aureus [13]) was greater than 400 µg/mL, the MIC (Staphylococcus aureus [14]) was greater than 400 µg/mL and the MIC (Staphylococcus aureus [15]) was 400 µg/mL (≈ 445 µM). The zone of inhibition at 400 µg/disc (Staphylococcus aureus [16]) was 11 mm, the zone of inhibition at 400 µg/disc [17] was 13 mm and the zone of inhibition at 400 µg/disc (Bacillus subtilis [18]) was 12 mm. The zone of inhibition at 400 µg/disc (Bacillus cereus [19]) was 12 mm, the “diameter of the inhibition zone (DIZ)” value (Enterococcus hirae [20]) was “inactive” and the “diameter of the inhibition zone (DIZ)” value (Micrococcus luteus [21]) was “inactive”. The zone of inhibition at 400 µg/disc (Micrococcus luteus [22]) was 14 mm, the zone of inhibition at 400 µg/disc (Staphylococcus aureus [23]) was 12 mm and the zone of inhibition at 400 µg/disc (Staphylococcus aureus [24]) was 11 mm. It also gave a zone of inhibition at 400 µg/disc (Staphylococcus aureus [25]) of 11 mm, an MIC (Staphylococcus aureus [26]) of 400 µg/mL (≈ 445 µM) and an MIC (Staphylococcus aureus [27]) of 400 µg/mL (≈ 445 µM). The MIC (Staphylococcus aureus [28]) was 400 µg/mL (≈ 445 µM), the MIC (Staphylococcus aureus [29]) was 400 µg/mL (≈ 445 µM) and the MIC [30] was greater than 400 µg/mL. The MIC (Bacillus subtilis [31]) was greater than 400 µg/mL, the MIC (Bacillus cereus [32]) was 400 µg/mL (≈ 445 µM) and the MIC (Enterococcus hirae [33]) was 400 µg/mL (≈ 445 µM). It also gave an MIC (Micrococcus luteus [34]) of 400 µg/mL (≈ 445 µM), an MIC (Micrococcus luteus [35]) of 400 µg/mL (≈ 445 µM) and an MIC (Staphylococcus aureus [36]) of 400 µg/mL (≈ 445 µM). For the same compound, the MIC (Staphylococcus aureus [37]) was 400 µg/mL (≈ 445 µM), the MIC (Staphylococcus aureus [38]) was greater than 400 µg/mL and the MIC (Staphylococcus aureus [39]) was greater than 400 µg/mL. For the same compound, the MIC (Staphylococcus aureus [40]) was greater than 400 µg/mL.
